# Reference: patent US20110117081A1, “FUNCTIONALIZED PYRROLIDINES AND USE THEREOF AS IAP INHIBITORS” (priority 2008, published 2011)
# What was measured:
# [1] = system: Ovarian adenocarcinoma SKOV3 cells; experiment: SKOV3 cell viability assay (MTT); assay type: cell-based; conditions: Homo sapiens, SK-OV-3, 72 hours
# Method: Ovarian adenocarcinoma SKOV3 cells (ATCC# HTB-77) were cultured as monolayers in McCoy's 5a medium (HyClone) supplemented with 2.2 g/L sodium bicarbonate (Gibco), 10% FBS (HyClone) and 1% penicillin/streptomycin (HyClone). Cells were seeded in tissue culture-treated 96 well plates at 5000 cells/well in 150 ul of media. After 24 hours, triplicate wells of cells were treated with various concentrations of compound (0.01 to 10000 nM) diluted in 50 ul of culture media. Cells were incubated at 37° C. (5% CO2) in the presence of compound for 72 hours. Metabolic viability of remaining cells was assessed by MTT (thiazolyl blue tetrazolium bromide, Sigma) assay. 20 ul of MTT reagent (10 mg/ml) was added per well and plates were incubated for 4 hours at 37° C. (5% CO2). The supernatant was then removed from the plate. The converted MTT product was solubilized with 100 uL of isopropanol and the absorbance was read at 570 nm using a Tecan spectrophotometer.
# (§1) The percentage viability of compound-treated cells was expressed as a fraction of the absorbance/luminescence signal obtained from non-treated cells. EC50 values (corresponding to 50% cell survival in the presence of compound as compared to untreated controls) were calculated from MTT survival curves (HCT116 and SKOV3) using BioAssay software (CambridgeSoft) and from Cell Titer-Glo survival curves (synovioycte and Jurkat cells) using GraphPad Prism (Graph Pad Software Inc.). In the below chart, EC50 values are summarized as follows: a=EC50 of less than 10 nM; b=EC50 of 10-100 nM; and c=EC50 of greater than 100 nM.
# [2] = system: Colorectal carcinoma HCT116 cells; experiment: HCT116 + ETR1 cell viability assay (MTT); assay type: cell-based; conditions: with ETR1 (40 ng/ml), 72 hrs
# Method: Colorectal carcinoma HCT116 cells (ATCC# CCL-247) were cultured as monolayers in 96 well plates at a density of 2000 cells per well in 100 ul of McCoy's 5a medium (HyClone) supplemented with 2.2 g/L sodium bicarbonate (Gibco), 10% FBS (HyClone) and 1% penecillin/streptomycin (HyClone) for 24 hours. Triplicate wells of cells were treated for 72 hrs at 37° C. (5% CO2) with 50 ul of HGS agonistic Trail receptor antibody, ETR1 (40 ng/ml) in combination with 50 ul of diluted compound (0.01 to 10000 nM). Metabolic viability of remaining cells was assessed by MTT assay.
# as §1
Structure (SMILES),EC50 [1] [nM],EC50 [2] [nM]
CN[C@@H](C)C(=O)N[C@H](C(=O)N1C[C@@H](NC(=O)c2ccc(C(=O)N[C@H]3C[C@@H](C(=O)N[C@@H]4CCOc5ccc(F)cc54)N(C(=O)[C@@H](NC(=O)[C@H](C)NC)C4CCCCC4)C3)cc2)CC1C(=O)N[C@@H]1CCOc2ccc(F)cc21)C1CCCCC1 (some centres unmarked) [Compound 25],10 to 100,< 10
CN[C@@H](C)C(=O)N[C@H](C(=O)N1C[C@@H](NC(=O)c2ccc(C(=O)N[C@H]3C[C@@H](C(=O)N[C@H](Cc4ccccc4)c4ccccc4)N(C(=O)[C@@H](NC(=O)[C@H](C)NC)C4CCCCC4)C3)cc2)C[C@H]1C(=O)N[C@H](Cc1ccccc1)c1ccccc1)C1CCCCC1 [Compound 14],10 to 100,< 10
CN[C@@H](C)C(=O)N[C@H](C(=O)N1C[C@@H](NC(=O)C2CCC(C(=O)N[C@H]3C[C@@H](C(=O)N[C@@H]4CCCc5ccccc54)N(C(=O)[C@@H](NC(=O)[C@H](C)NC)C4CCCCC4)C3)CC2)C[C@H]1C(=O)N[C@@H]1CCCc2ccccc21)C1CCCCC1 (some centres unmarked) [Compound 4],< 10,< 10
CN[C@@H](C)C(=O)N[C@H](C(=O)N1C[C@@H](NC(=O)C2CCC(C(=O)N[C@H]3C[C@@H](C(=O)N[C@H](COCc4ccccc4)c4ccccc4)N(C(=O)[C@@H](NC(=O)[C@H](C)NC)C4CCCCC4)C3)CC2)C[C@H]1C(=O)N[C@H](COCc1ccccc1)c1ccccc1)C1CCCCC1 (some centres unmarked) [Compound 17],10 to 100,< 10
CN[C@@H](C)C(=O)N[C@H](C(=O)N1C[C@@H](NC(=O)c2ccc(-c3ccc(C(=O)N[C@H]4C[C@@H](C(=O)N[C@H](COCc5ccccc5)c5ccccc5)N(C(=O)[C@@H](NC(=O)[C@H](C)NC)C5CCCCC5)C4)cc3)cc2)C[C@H]1C(=O)N[C@H](COCc1ccccc1)c1ccccc1)C1CCCCC1 [Compound 27],10 to 100,< 10
CN[C@@H](C)C(=O)N[C@H](C(=O)N1C[C@@H](NC(=O)c2ccc(C(=O)N[C@H]3C[C@@H](C(=O)N[C@H](COCc4ccccc4)c4ccccc4)N(C(=O)[C@@H](NC(=O)[C@H](C)NC)C4CCCCC4)C3)cc2)C[C@H]1C(=O)N[C@H](COCc1ccccc1)c1ccccc1)C1CCCCC1 [Compound 18],10 to 100,< 10
CN[C@@H](C)C(=O)N[C@H](C(=O)N1C[C@@H](NC(=O)c2ccc3cc(C(=O)N[C@H]4C[C@@H](C(=O)NC(c5ccccc5)c5ccccc5)N(C(=O)[C@@H](NC(=O)[C@H](C)NC)C5CCCCC5)C4)ccc3c2)C[C@H]1C(=O)NC(c1ccccc1)c1ccccc1)C1CCCCC1 [Compound 23],< 10,< 10
CN[C@@H](C)C(=O)N[C@H](C(=O)N1C[C@@H](NC(=O)c2ccc(C(=O)N[C@H]3C[C@@H](C(=O)N[C@H](CCc4ccccc4)c4ccccc4)N(C(=O)[C@@H](NC(=O)[C@H](C)NC)C4CCCCC4)C3)cc2)C[C@H]1C(=O)N[C@H](CCc1ccccc1)c1ccccc1)C1CCCCC1 [Compound 16],10 to 100,10 to 100
CN[C@@H](C)C(=O)N[C@H](C(=O)N1C[C@@H](NC(=O)c2ccc(C(=O)N[C@H]3C[C@@H](C(=O)N4CCC[C@@H]4c4ccccc4)N(C(=O)[C@@H](NC(=O)[C@H](C)NC)C4CCCCC4)C3)cc2)C[C@H]1C(=O)N1CCC[C@@H]1c1ccccc1)C1CCCCC1 [Compound 30],> 100,> 100
CN[C@@H](C)C(=O)N[C@H](C(=O)N1C[C@@H](NC(=O)c2ccc(-c3ccc(C(=O)N[C@H]4C[C@@H](C(=O)NC(c5ccccc5)c5ccccc5)N(C(=O)[C@@H](NC(=O)[C@H](C)NC)C5CCCCC5)C4)cc3)cc2)C[C@H]1C(=O)NC(c1ccccc1)c1ccccc1)C1CCCCC1 [Compound 11],10 to 100,< 10
CN[C@@H](C)C(=O)N[C@H](C(=O)N1C[C@@H](NC(=O)c2ccc(C(=O)N[C@H]3C[C@@H](C(=O)NC(c4ccccc4)c4ccccc4)N(C(=O)[C@@H](NC(=O)[C@H](C)NC)C4CCCCC4)C3)cc2)C[C@H]1C(=O)NC(c1ccccc1)c1ccccc1)C1CCCCC1 [Compound 5],< 10,< 10
CN[C@@H](C)C(=O)N[C@H](C(=O)N1C[C@@H](NC(=O)c2ccc(C(=O)N[C@H]3C[C@@H](C(=O)N[C@H](C)c4ccccc4)N(C(=O)[C@@H](NC(=O)[C@H](C)NC)C4CCCCC4)C3)cc2)C[C@H]1C(=O)N[C@H](C)c1ccccc1)C1CCCCC1 [Compound 13],< 10,< 10
CN[C@@H](C)C(=O)N[C@H](C(=O)N1C[C@@H](NC(=O)c2ccc(C(=O)N[C@H]3C[C@@H](C(=O)NCc4ccccc4)N(C(=O)[C@@H](NC(=O)[C@H](C)NC)C4CCCCC4)C3)cc2)C[C@H]1C(=O)NCc1ccccc1)C1CCCCC1 [Compound 29],< 10,< 10
CN[C@@H](C)C(=O)N[C@H](C(=O)N1C[C@@H](NC(=O)C2CCC(C(=O)N[C@H]3C[C@@H](C(=O)NC4c5ccccc5-c5ccccc54)N(C(=O)[C@@H](NC(=O)[C@H](C)NC)C4CCCCC4)C3)CC2)C[C@H]1C(=O)NC1c2ccccc2-c2ccccc21)C1CCCCC1 (some centres unmarked) [Compound 2],10 to 100,< 10
CN[C@@H](C)C(=O)N[C@H](C(=O)N1C[C@@H](NC(=O)c2ccc(C(=O)N[C@H]3C[C@@H](C(=O)N[C@@H]4CCc5ccccc54)N(C(=O)[C@@H](NC(=O)[C@H](C)NC)C4CCCCC4)C3)cc2)C[C@H]1C(=O)N[C@@H]1CCc2ccccc21)C1CCCCC1 [Compound 6],< 10,< 10
CN[C@@H](C)C(=O)N[C@H](C(=O)N1C[C@@H](NC(=O)c2ccc(C(=O)N[C@H]3C[C@@H](C(=O)N[C@H](CCCc4ccccc4)c4ccccc4)N(C(=O)[C@@H](NC(=O)[C@H](C)NC)C4CCCCC4)C3)cc2)C[C@H]1C(=O)N[C@H](CCCc1ccccc1)c1ccccc1)C1CCCCC1 [Compound 8],> 100,10 to 100
CN[C@@H](C)C(=O)N[C@H](C(=O)N1C[C@@H](NC(=O)c2ccc3cc(C(=O)N[C@H]4C[C@@H](C(=O)N[C@H](COCc5ccccc5)c5ccccc5)N(C(=O)[C@@H](NC(=O)[C@H](C)NC)C5CCCCC5)C4)ccc3c2)C[C@H]1C(=O)N[C@H](COCc1ccccc1)c1ccccc1)C1CCCCC1 [Compound 21],10 to 100,< 10
CN[C@@H](C)C(=O)N[C@H](C(=O)N1C[C@@H](NC(=O)C2CCC(C(=O)N[C@H]3C[C@@H](C(=O)N[C@@H]4CCOc5ccc(F)cc54)N(C(=O)[C@@H](NC(=O)[C@H](C)NC)C4CCCCC4)C3)CC2)C[C@H]1C(=O)N[C@@H]1CCOc2ccc(F)cc21)C1CCCCC1 (some centres unmarked) [Compound 24],10 to 100,< 10
CN[C@@H](C)C(=O)N[C@H](C(=O)N1C[C@@H](NC(=O)c2ccc(C(=O)N[C@H]3C[C@@H](C(=O)NC4c5ccccc5-c5ccccc54)N(C(=O)[C@@H](NC(=O)[C@H](C)NC)C4CCCCC4)C3)cc2)C[C@H]1C(=O)NC1c2ccccc2-c2ccccc21)C1CCCCC1 [Compound 15],< 10,< 10
CN[C@@H](C)C(=O)N[C@H](C(=O)N1C[C@@H](NC(=O)c2ccc(C(=O)N[C@H]3C[C@@H](C(=O)N[C@@H]4CCOc5ccccc54)N(C(=O)[C@@H](NC(=O)[C@H](C)NC)C4CCCCC4)C3)cc2)C[C@H]1C(=O)N[C@@H]1CCOc2ccccc21)C1CCCCC1 [Compound 31],< 10,< 10
CN[C@@H](C)C(=O)N[C@H](C(=O)N1C[C@@H](NC(=O)c2ccc3cc(C(=O)N[C@H]4C[C@@H](C(=O)N[C@@H]5CCc6ccccc65)N(C(=O)[C@@H](NC(=O)[C@H](C)NC)C5CCCCC5)C4)ccc3c2)C[C@H]1C(=O)N[C@@H]1CCc2ccccc21)C1CCCCC1 [Compound 22],< 10,< 10
CN[C@@H](C)C(=O)N[C@H](C(=O)N1C[C@@H](NC(=O)c2ccc(-c3ccc(C(=O)N[C@H]4C[C@@H](C(=O)N[C@@H]5CCCc6ccccc65)N(C(=O)[C@@H](NC(=O)[C@H](C)NC)C5CCCCC5)C4)cc3)cc2)C[C@H]1C(=O)N[C@@H]1CCCc2ccccc21)C1CCCCC1 [Compound 9],< 10,< 10
CN[C@@H](C)C(=O)N[C@H](C(=O)N1C[C@@H](NC(=O)c2ccc(C(=O)N[C@H]3C[C@@H](C(=O)N[C@H](C)c4ccc(F)cc4)N(C(=O)[C@@H](NC(=O)[C@H](C)NC)C4CCCCC4)C3)cc2)CC1C(=O)N[C@H](C)c1ccc(F)cc1)C1CCCCC1 (some centres unmarked) [Compound 26],< 10,< 10
CN[C@@H](C)C(=O)N[C@H](C(=O)N1C[C@@H](NC(=O)c2cnc(C(=O)N[C@H]3C[C@@H](C(=O)N[C@@H]4CCOc5ccccc54)N(C(=O)[C@@H](NC(=O)[C@H](C)NC)C4CCCCC4)C3)cn2)C[C@H]1C(=O)N[C@@H]1CCOc2ccccc21)C1CCCCC1 [Compound 54],–,< 10
